Several values for one entry are separate records, joined by “and”; a condition that tells them apart may be missing. Equal entries are not always repeated.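 Interpolation was linear, between the two tested concentrations surrounding the appropriate level; five concentrations were tested over 48 hours in 96-well plates. At the GI50, growth is halved. TGI: total growth inhibition.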
Tests used:
Assay in all cases: NCI tumour cell line growth inhibition, 48 h
HT29 colon = system: HT29 colon
TK-10 renal = system: TK-10 renal
OVCAR-5 ovarian = system: OVCAR-5 ovarian
SF-268 CNS = system: SF-268 CNS
DU-145 prostate = system: DU-145 prostate
NCI-H226 lung = system: NCI-H226 lung
RXF 393 renal = system: RXF 393 renal
LOX IMVI melanoma = system: LOX IMVI melanoma
NCI-H460 lung = system: NCI-H460 lung
MDA-MB-435 = system: MDA-MB-435

SMILES	GI50 (HT29 colon)	TGI (HT29 colon)	GI50 (TK-10 renal)	TGI (TK-10 renal)	GI50 (OVCAR-5 ovarian)	TGI (OVCAR-5 ovarian)	GI50 (SF-268 CNS)	TGI (SF-268 CNS)	GI50 (DU-145 prostate)	TGI (DU-145 prostate)	GI50 (NCI-H226 lung)	TGI (NCI-H226 lung)	GI50 (RXF 393 renal)	GI50 (LOX IMVI melanoma)	TGI (LOX IMVI melanoma)	GI50 (NCI-H460 lung)	TGI (NCI-H460 lung)	GI50 (MDA-MB-435)	TGI (MDA-MB-435)	TGI (RXF 393 renal)
CCOC(=O)/C=C/c1cc2cc(-c3csc4ccccc34)ccc2[nH]1	3.39 µM	11.6 µM	14.4 µM	29 µM	21.6 µM	42.6 µM	11 µM	26.6 µM	4.83 µM	16.6 µM	10.6 µM	32.7 µM	3.86 µM	5 µM	18.9 µM	15.5 µM	31.3 µM	1.91 µM	4.73 µM	
Cc1noc(C)c1-c1cc(O)cc(C(O)c2ccccc2)c1 (configuration not stated)	4.54 µM	> 100 µM	3.99 µM	> 100 µM	31.8 µM	> 100 µM	39.3 µM	> 100 µM	69.5 µM	> 100 µM	21.3 µM	> 100 µM	4.58 µM	3.6 µM	80.5 µM	25.1 µM	> 100 µM	3.48 µM	> 100 µM	> 100 µM
CN(C)c1ncnc2c1nnn2C1OC(CO)C(O)C1O (configuration not stated)	0.128 µM	> 24.7 µM	0.25 µM	> 100 µM	2.97 µM	> 100 µM	0.479 µM	> 100 µM	0.106 µM	> 100 µM	4.49 µM	> 100 µM	0.386 µM	0.156 µM	> 100 µM	0.247 µM	> 100 µM	0.234 µM	> 100 µM	> 100 µM
C/C(=N\N=C(\[Se])N1CCN(c2ccccn2)CC1)c1ccccn1	0.00203 µM	14.2 µM		20.6 µM	0.00643 µM	21.8 µM		19.5 µM	0.586 µM	20.1 µM		14.3 µM		0.00443 µM	17.6 µM		16 µM	0.0967 µM	20.3 µM	1.83 µM
CC1CCN(CCCCCOc2ccc3oc4cc(Cl)ccc4c(=O)c3c2)CC1	1.72 µM	6.2 µM	7.46 µM	14.8 µM	6.63 µM	13.5 µM	7.4 µM	15.8 µM	7.14 µM	13.9 µM	9.42 µM	20.2 µM	5.75 µM	4.18 µM	10.9 µM	6.63 µM	13.9 µM	1.55 µM	5.23 µM	12.7 µM
O=C(CF)N(O)c1ccc(/C=C/c2ccccc2)cc1	3.52 µM	> 100 µM	3.38 µM	27.5 µM	8.26 µM	> 100 µM	2.78 µM	> 100 µM	1.48 µM	6.96 µM	0.77 µM	3.24 µM	3.13 µM	2.53 µM	> 100 µM	0.322 µM	> 100 µM	8.48 µM	> 100 µM	25.1 µM
C/C(=C\C1=C(Cl)C(=O)c2ccccc2C1=O)C(=O)O	20.1 µM	36.7 µM	23.3 µM	38.1 µM	22.5 µM	37.4 µM	18.3 µM	32.2 µM	17.6 µM	34.6 µM	19.6 µM	37.5 µM	18.3 µM	17.6 µM	38.6 µM	21.9 µM	45.1 µM	19.4 µM	34.8 µM	33.1 µM
CC(=O)c1cc2c(cc1Nc1c3ccccc3nc3occ(Cl)c13)OCO2	0.439 µM	> 100 µM	0.409 µM	> 100 µM	0.616 µM	> 100 µM	0.697 µM	> 100 µM	0.227 µM		3.42 µM		0.193 µM	0.435 µM	> 100 µM	0.27 µM	> 40.1 µM	0.0444 µM	0.161 µM	0.523 µM
COC(=O)[C@]12CC[C@@H](C)[C@H](C)[C@@H]1C1=CC[C@@H]3[C@@]4(C)C(C=O)=C[C@@](C)(COC(=O)c5ccco5)[C@@H]4C(=O)C[C@@]3(C)[C@]1(C)CC2	7.92 µM	> 100 µM	11.7 µM	> 100 µM	68.8 µM	> 100 µM	7.03 µM	> 100 µM	8.8 µM	> 100 µM	2.63 µM	12.6 µM	3.35 µM	4.42 µM	31.2 µM	3.92 µM	> 100 µM	0.193 µM	4.33 µM	35.3 µM
Cn1nnnc1N/N=C/c1ccccc1		> 10 µM		> 10 µM		> 10 µM		> 10 µM		> 10 µM		> 10 µM			> 10 µM		> 10 µM		> 10 µM	> 10 µM
C[C@@H]1CC[C@@H]2[C@@H]1[C@H](OC(=O)/C=C/c1ccccc1)[C@]1(C3CCCCC3)C[C@@H](NC(=O)CO)[C@@]2(C)O1	18.9 µM	35.5 µM	18.4 µM	35.3 µM	16.2 µM	30.8 µM	14.3 µM	30 µM	18.4 µM	32.9 µM	16.7 µM	32.4 µM	3.29 µM	17.8 µM	32.5 µM	16.6 µM	32.8 µM	17.2 µM	32.4 µM	13.8 µM
CN(C)CCOc1ccc(/C(=C(/CCCl)c2ccccc2)c2ccccc2)cc1	0.598 µM		0.991 µM		1.52 µM	5.09 µM and 33.5 µM	1.51 µM	17.4 µM and 33 µM	1.88 µM	18.1 µM and 33.2 µM	1.34 µM	13.4 µM and 39.3 µM	0.698 µM	0.819 µM		0.845 µM		0.894 µM		1.4 µM
O=[N+]([O-])c1ccc2c(N3CCC(CCCC4CCN(c5ncnc6cc([N+](=O)[O-])ccc56)CC4)CC3)ncnc2c1	21.7 µM	> 86.4 µM	> 58.7 µM	> 100 µM	> 100 µM	> 100 µM	> 53.3 µM	> 100 µM	> 96.2 µM	> 100 µM	9.47 µM	> 75.3 µM	30.8 µM	29.7 µM	> 100 µM	23.9 µM	> 100 µM	> 40.7 µM	> 100 µM	> 100 µM
CN(C)c1ccc(/C=C2\N=C(c3ccc([N+](=O)[O-])cc3)OC2=O)cc1		> 100 µM		> 100 µM		> 100 µM		> 100 µM		> 100 µM		> 100 µM			61.2 µM		> 100 µM		> 100 µM	> 100 µM
O=C(O)CCC(=O)c1ccc2ccc3cccc4ccc1c2c34		> 100 µM		> 100 µM		> 100 µM		> 100 µM		> 100 µM		> 100 µM			> 100 µM		> 100 µM		> 100 µM	> 100 µM
O=C(CCCN1CCOCC1)Nc1ccc(Cn2nnc3c2C(=O)c2nnn(Cc4ccc(NC(=O)CCCN5CCOCC5)cc4)c2C3=O)cc1	3.31 µM	8.9 µM	> 100 µM	> 100 µM	> 100 µM	> 100 µM	3.21 µM	12.1 µM	7.3 µM	> 100 µM	> 100 µM	> 100 µM	4.33 µM	2.01 µM	6.3 µM	2.07 µM	> 100 µM	1.65 µM	3.08 µM	38.9 µM

— PubChem BioAssay (NCI)
